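Step 1: Grow cells in 96-well plates. Step 2: Expose to compound for 48 hours at 5 concentrations. Step 3: Interpolate endpoints linearly; if unreached, use highest concentration. GI50: concentration for 50% inhibition of growth. TGI: total growth inhibition.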
Tests used:
Experiment in all cases: growth of human tumour cells (NCI), 48 h
K-562 leukemia = tested on: K-562 leukemia
OVCAR-5 ovarian = tested on: OVCAR-5 ovarian
SW-620 colon = tested on: SW-620 colon
RPMI-8226 leukemia = tested on: RPMI-8226 leukemia
HCC-2998 colon = tested on: HCC-2998 colon
UACC-257 melanoma = tested on: UACC-257 melanoma
SF-295 CNS = tested on: SF-295 CNS
ACHN renal = tested on: ACHN renal
KM12 colon = tested on: KM12 colon
OVCAR-8 ovarian = tested on: OVCAR-8 ovarian
LOX IMVI melanoma = tested on: LOX IMVI melanoma
CAKI-1 renal = tested on: CAKI-1 renal
COLO 205 colon = tested on: COLO 205 colon
SNB-19 CNS = tested on: SNB-19 CNS
UACC-62 melanoma = tested on: UACC-62 melanoma
SK-MEL-2 melanoma = tested on: SK-MEL-2 melanoma
HL-60(TB) leukemia = tested on: HL-60(TB) leukemia
SNB-75 CNS = tested on: SNB-75 CNS
NCI-H23 lung = tested on: NCI-H23 lung
SK-MEL-28 melanoma = tested on: SK-MEL-28 melanoma
SR leukemia = tested on: SR leukemia
SF-539 CNS = tested on: SF-539 CNS
HCT-15 colon = tested on: HCT-15 colon
SK-OV-3 ovarian = tested on: SK-OV-3 ovarian
SK-MEL-5 melanoma = tested on: SK-MEL-5 melanoma
U251 CNS = tested on: U251 CNS
M14 melanoma = tested on: M14 melanoma
T-47D breast = tested on: T-47D breast
HOP-62 NSCLC = tested on: HOP-62 NSCLC
OVCAR-4 ovarian = tested on: OVCAR-4 ovarian
A549 NSCLC = tested on: A549 NSCLC
NCI-H226 lung = tested on: NCI-H226 lung
MDA-MB-231 breast = tested on: MDA-MB-231 breast
EKVX NSCLC = tested on: EKVX NSCLC
DU-145 prostate = tested on: DU-145 prostate
CCRF-CEM leukemia = tested on: CCRF-CEM leukemia
SN12C renal = tested on: SN12C renal
IGROV1 ovarian = tested on: IGROV1 ovarian
NCI/ADR-RES ovarian = tested on: NCI/ADR-RES ovarian
RXF 393 renal = tested on: RXF 393 renal
BT-549 breast = tested on: BT-549 breast
UO-31 renal = tested on: UO-31 renal
PC-3 prostate = tested on: PC-3 prostate
OVCAR-3 ovarian = tested on: OVCAR-3 ovarian
HCT-116 colon = tested on: HCT-116 colon
MALME-3M melanoma = tested on: MALME-3M melanoma
TK-10 renal = tested on: TK-10 renal
786-0 renal = tested on: 786-0 renal
HOP-92 NSCLC = tested on: HOP-92 NSCLC
A498 renal = tested on: A498 renal
MCF7 breast = tested on: MCF7 breast
NCI-H522 lung = tested on: NCI-H522 lung
HT29 colon = tested on: HT29 colon
HS 578T breast = tested on: HS 578T breast
NCI-H460 lung = tested on: NCI-H460 lung
SF-268 CNS = tested on: SF-268 CNS
MDA-MB-435 = tested on: MDA-MB-435

COc1ccc(/C=C2\C=C(c3ccccc3)N(CCc3ccccc3)C2=O)cc1OC
GI50 (K-562 leukemia): 23.9 µM
TGI (K-562 leukemia): > 100 µM
GI50 (OVCAR-5 ovarian): 6.37 µM
TGI (OVCAR-5 ovarian): 73.1 µM
GI50 (SW-620 colon): 13.6 µM
TGI (SW-620 colon): > 100 µM
GI50 (RPMI-8226 leukemia): 18.4 µM
TGI (RPMI-8226 leukemia): 84.9 µM
GI50 (HCC-2998 colon): 12.9 µM
TGI (HCC-2998 colon): 64.1 µM
GI50 (UACC-257 melanoma): 20.2 µM
TGI (UACC-257 melanoma): 86.8 µM
GI50 (SF-295 CNS): 5.95 µM
TGI (SF-295 CNS): 24 µM
GI50 (ACHN renal): 3.53 µM
TGI (ACHN renal): 14 µM
GI50 (KM12 colon): 22.2 µM
TGI (KM12 colon): > 100 µM
GI50 (OVCAR-8 ovarian): 6.09 µM
TGI (OVCAR-8 ovarian): 22.5 µM
GI50 (LOX IMVI melanoma): 5.94 µM
TGI (LOX IMVI melanoma): 19 µM
GI50 (CAKI-1 renal): 7.53 µM
TGI (CAKI-1 renal): > 100 µM
GI50 (COLO 205 colon): 17.3 µM
TGI (COLO 205 colon): > 100 µM
GI50 (SNB-19 CNS): 5.08 µM
TGI (SNB-19 CNS): 21.5 µM
GI50 (UACC-62 melanoma): 6.01 µM
TGI (UACC-62 melanoma): 40.9 µM
GI50 (SK-MEL-2 melanoma): 18.5 µM
TGI (SK-MEL-2 melanoma): > 100 µM
GI50 (HL-60(TB) leukemia): 11.7 µM
TGI (HL-60(TB) leukemia): 68.6 µM
GI50 (SNB-75 CNS): 1.89 µM
TGI (SNB-75 CNS): 6.28 µM
GI50 (NCI-H23 lung): 17 µM
TGI (NCI-H23 lung): > 100 µM
GI50 (SK-MEL-28 melanoma): 6.76 µM
TGI (SK-MEL-28 melanoma): 68.1 µM
GI50 (SR leukemia): 11.1 µM
TGI (SR leukemia): 57.7 µM
GI50 (SF-539 CNS): 6.68 µM
TGI (SF-539 CNS): 23 µM
GI50 (HCT-15 colon): 11.1 µM
TGI (HCT-15 colon): > 100 µM
GI50 (SK-OV-3 ovarian): 4.04 µM
TGI (SK-OV-3 ovarian): 18.8 µM
GI50 (SK-MEL-5 melanoma): 9.29 µM
TGI (SK-MEL-5 melanoma): 94.5 µM
GI50 (U251 CNS): 3.2 µM
TGI (U251 CNS): 9.31 µM
GI50 (M14 melanoma): 8.84 µM
TGI (M14 melanoma): > 100 µM
GI50 (T-47D breast): 3.2 µM
TGI (T-47D breast): 28.1 µM
GI50 (HOP-62 NSCLC): 2.72 µM
GI50 (OVCAR-4 ovarian): 3.15 µM
TGI (OVCAR-4 ovarian): 87 µM
GI50 (A549 NSCLC): 5.06 µM
TGI (A549 NSCLC): 17.7 µM
GI50 (NCI-H226 lung): 4.6 µM
TGI (NCI-H226 lung): 30.2 µM
GI50 (MDA-MB-231 breast): 4.16 µM
TGI (MDA-MB-231 breast): 17.9 µM
GI50 (EKVX NSCLC): 10.4 µM
TGI (EKVX NSCLC): 54 µM
GI50 (DU-145 prostate): 13.2 µM
TGI (DU-145 prostate): > 100 µM
GI50 (CCRF-CEM leukemia): 35.9 µM
TGI (CCRF-CEM leukemia): > 100 µM
GI50 (SN12C renal): 4.88 µM
TGI (SN12C renal): 21.8 µM
GI50 (IGROV1 ovarian): 4.93 µM
TGI (IGROV1 ovarian): 52.1 µM
GI50 (NCI/ADR-RES ovarian): 9.03 µM
TGI (NCI/ADR-RES ovarian): 68.5 µM
GI50 (RXF 393 renal): 3.64 µM
TGI (RXF 393 renal): 15.6 µM
GI50 (BT-549 breast): 12.4 µM
TGI (BT-549 breast): 49.9 µM
GI50 (UO-31 renal): 4.35 µM
TGI (UO-31 renal): 20.6 µM
GI50 (PC-3 prostate): 21.1 µM
TGI (PC-3 prostate): > 100 µM
GI50 (OVCAR-3 ovarian): 4.82 µM
TGI (OVCAR-3 ovarian): 17.8 µM
GI50 (HCT-116 colon): 3.09 µM
TGI (HCT-116 colon): 11.6 µM
GI50 (MALME-3M melanoma): 10.2 µM
TGI (MALME-3M melanoma): 61.9 µM
GI50 (TK-10 renal): 2.28 µM
TGI (TK-10 renal): 4.91 µM
GI50 (786-0 renal): 2.14 µM
TGI (786-0 renal): 5.85 µM
GI50 (HOP-92 NSCLC): 2.54 µM
TGI (HOP-92 NSCLC): 8.17 µM
GI50 (A498 renal): 2.25 µM
TGI (A498 renal): 5.32 µM
GI50 (MCF7 breast): 4.18 µM
TGI (MCF7 breast): 57.2 µM
GI50 (NCI-H522 lung): 9.8 µM
TGI (NCI-H522 lung): 36 µM
GI50 (HT29 colon): 8.92 µM
TGI (HT29 colon): 48.9 µM
GI50 (HS 578T breast): 3.66 µM
TGI (HS 578T breast): 23.4 µM
GI50 (NCI-H460 lung): 7.34 µM
TGI (NCI-H460 lung): 30.7 µM
GI50 (SF-268 CNS): 8.18 µM
TGI (SF-268 CNS): 26.5 µM
GI50 (MDA-MB-435): 4.78 µM
TGI (MDA-MB-435): > 100 µM
